Assay results reported in publication PMC5539802 (2014).

What was measured:
[1] = test system: PS2.M (DNA, G4) GTGGGTAGGGCGGGTTGG; test: luminescence enhancement; settings: 100 mM K+ (annealing); 1 μM complex, 5 μM DNA; 20 mM Tris-HCl pH 7.0
[2] = test system: ds17 (DNA, duplex) CCAGTTCGTAGTAACCC/GGGTTACTACGAACTGG; test: G4-FID thiazole orange displacement; settings: Tris-HCl buffer; thiazole orange 0.5 μM displaced; less effective than for Pu27
[3] = test system: ON1-ON2 duplex substrate (DNA, duplex) GTGGGTAGGGCGGGTTGGTGGCGACGGCAGCGAGGCAGAGGAGCAGAGGGAGCA/GCCTCGCTGCCGTCGCCACCAACCCGCCC; test: luminescence enhancement; settings: 20 mM K+, 150 mM NH4+; 20 mM Tris pH 7.2; 1 μM complex; duplex without helicase unwinding
[4] = test system: ON1 (DNA, G4) GTGGGTAGGGCGGGTTGGTGGCGACGGCAGCGAGGCAGAGGAGCAGAGGGAGCA; test: luminescence enhancement; settings: 20 mM K+, 150 mM NH4+; 20 mM Tris pH 7.2; 1 μM complex; G-quadruplex released by helicase unwinding of ON1-ON2
[5] = test system: F10T (DNA, hairpin, hexaethylene glycol (HEG) linker between nucleotides 8 and 9) TATAGCTATATAGCTATAT; test: FRET melting; settings: 10 mM Li+; lithium cacodylate pH 7.4; same complex concentration as F21T
[6] = test system: F21T (DNA, G4) GGGTTAGGGTTAGGGTTAGGG; test: FRET melting; settings: 100 mM K+; potassium cacodylate pH 7.0; 200 nM DNA; complex concentration not in material

binding [1]	binding [2]	binding [3]	binding [4]	ΔTm [5] [°C]	ΔTm [6]	Structure (SMILES)
yes	–	–	–	–	–	Clc1cc2cccnc2c2ncccc12.[Ir+3].[c-]1ccccc1-c1ccc2ccccc2n1.[c-]1ccccc1-c1ccc2ccccc2n1
yes	weak	weak	yes	4	~ 13 °C	[Ir+3].[c-]1ccccc1-c1ccc2ccccc2n1.[c-]1ccccc1-c1ccc2ccccc2n1.c1cnc2c(c1)ccc1cccnc12
